Legend:
INS-1 cells = experiment: Insulin secretion assay in INS-1 cells (glucose at 4.2 mM); assay type: cell-based, rat; conditions: glucose 4.2 mM, 1 h incubation, control = glucose 4.2 mM; for Insulin secretion, % of ctrl at 10 μM of cpd: 10 μM of compound; for Insulin secretion, % of ctrl at 50 μM of cpd: 50 μM of compound
Method: INS-1 cells were cultured in complete medium, RPMI1640 containing 1 mM sodium pyruvate, 50 μM 2-mercaptoethanol, 2 mM glutamine, 10 mM HEPES, 100 IU/mL penicillin, and 100 μg/mL streptomycin (CM), supplemented with 10 mM glucose, and 10% (vol/vol) heat-inactivated fetal calf serum (FCS), as described by Asfari et al. (Endocrinology 130: 167-178, 1992).
INS-1 cells were plated and cultured in 48-well plates. After 2 days of culture, the medium was removed and cells were cultured for 24 h with a medium change to 5 mM glucose, 1% FCS. The cells were then washed with Krebs-Ringer Bicarbonate HEPES buffer (KRBH; 135 mM NaCl; 3.6 mM KCl; 5 mM NaHCO3; 0.5 mM NaH2PO4; 0.5 mM MgCl2; 1.5 mM CaCl2 and 10 mM HEPES; pH 7.4) 0,1% BSA containing 2.8 mM glucose and preincubated for 30 min at 37° C. in the same buffer. The cells were then washed twice and incubated for 1 h in KRBH 0.1% BSA containing 4.2 mM glucose and different concentrations of the tested molecule. Insulin concentration in the collected supernatants was measured with ELISA using rat insulin antibody (Insulin Rat Elit PLUS, cat. ref 10-1145-01).
Insulin secretion results are expressed in % of control (glucose 4.2 mM).
Insulin Secretion in INS-1 Cells (Glucose at 4.2 mM)

Row | SMILES | melting point [°C] | Insulin secretion, % of ctrl at 10 μM of cpd (INS-1 cells) | Insulin secretion, % of ctrl at 50 μM of cpd (INS-1 cells)
1 | CCn1ccnc(-c2ccc(S(C)(=O)=O)cc2)c1=O [Example 5-2, 1-ethyl-3-[4-(methylsulfonyl)phenyl]pyrazin-2(114)-one] | 108 to 110 | – | –
2 | CCn1ccnc(-c2ccc3c(c2)OCO3)c1=O [Example 5-5, 3-(1,3-benzodioxol-5-yl)-1-ethylpyrazin-2(1H)-one] | – | 158 % of ctrl | 204 % of ctrl
3 | CCn1ccnc(-c2ccc(C(=O)O)cc2)c1=O [Example 5-15, 4-(4-ethyl-3-oxo-3,4-dihydropyrazin-2-yl)benzoic acid] | 170 | – | –
4 | CCn1ccnc(-c2ccc3cc[nH]c3c2)c1=O [Example 5-16, 1-ethyl-3-(1H-indol-6-yl)pyrazin-2(1H)-one] | 170 | – | –
5 | CCn1c2c(nc(-c3ccc(Cl)cc3)c1=O)CCCC2 [Example 9, 3-(4-chlorophenyl)-1-ethyl-5,6,7,8-tetrahydroquinoxalin-2(1H)-one] | 110 to 113 | 343 % of ctrl | 371 % of ctrl
6 | CCCn1ccnc(-c2ccccc2)c1=O [Example 9-3, 3-phenyl-1-propylpyrazin-2(1H)-one] | – | 145 % of ctrl | 182 % of ctrl
7 | CC(C)Cn1ccnc(-c2ccc(Cl)cc2)c1=O [Example 9-7, 3-(4-chlorophenyl)-1-isobutylpyrazin-2(1H)-one] | – | 140 % of ctrl | 338 % of ctrl
8 | O=c1c(-c2ccc(Cl)cc2)nccn1CC1CC1 [Example 9-8, 3-(4-chlorophenyl)-1-(cyclopropylmethyl)pyrazin-2(1H)-one] | – | 172 % of ctrl | 333 % of ctrl

— patent US8815859B2, “Substituted pyrazin-2-ones and substituted 5,6,7,8-tetrahydroquinoxalin-2-ones and methods of use thereof” (Merck Patent GmbH, priority 2008, dated 2014)
